Experimental data reported in PMC12074479, “Design, Synthesis, and Biological Evaluation of New Analogs of Aurein 1.2 Containing Non-Proteinogenic Amino Acids” (Molecules, 2025).
In brackets after ≈: the same amount, converted by molar mass. Where two headings read alike, the source gives them in different places. Where a SMILES comes first, the peptide text is derived from it. [ ]: non-standard residue; d: D form. Orn = NCCC[C@H](N)C(=O)O; Dab = NCC[C@H](N)C(=O)O; Dap = NC[C@H](N)C(=O)O

Experiments:
[1] = test system: Escherichia coli NBIMCC K12 407
Method: (§1) The antimicrobial activity of the 7 new analogs of aurein 1.2 was evaluated by determining the MIC and MBC against Gram-positive strain Bacillus subtilis 3562 and Gram-negative strain Escherichia coli K12 407. The MIC of the newly synthesized analogs was assessed by applying a broth microdilution method, whereas their MBC was determined by using a spread plate method. All experiments were performed in triplicate.
(§2) Bacillus subtilis NBIMCC 3562 and Escherichia coli NBIMCC K12 407 were used as test microorganisms and were purchased from the National Bank for Industrial Microorganisms and Cell Cultures (NBIMCC, Sofia, Bulgaria). Exponential cultures were obtained in Nutrient broth (NB, HiMedia, Mumbai, India) for B. subtilis NBIMCC 3562 and Luria-Bertani (LB, HiMedia, Mumbai, India) for E. coli NBIMCC K12 407, after cultivation in an incubator shaker ES-20/60 (Biosan, Latvia) at 30/37 °C for 24 h. Then, the turbidity of the microbial cultures was adjusted to the 0.5 McFarland standard using a Grant Bio DEN-1B Densitometer (Grant Instruments, Royston, UK).
(§3) The antimicrobial activity of the obtained aurein 1.2 analogs was evaluated using the broth microdilution method, recommended by the Clinical and Laboratory Standards Institute (CLSI), to determine the minimum inhibitory concentration (MIC) of the peptides against B. subtilis NBIMCC 3562 and E. coli NBIMCC K12 407. All peptides were previously dissolved in 10% EtOH/H2O, and their 10 mg/mL stock solutions were stored at −20 °C. Bacterial cultures, previously adjusted to 0.5 McFarland standard, were incubated in the presence of different peptide concentrations (0–320 µg/mL) in 96-well polystyrene microplates (Deltalab S.L., Barcelona, Spain) at 30/37 °C for 24 h. The lowest concentration of each peptide, which inhibited bacterial growth, was considered as MIC. In addition, a drop of 20 µL of the 24 h inhibitory concentration test samples was spotted on the corresponding solid media to determine the minimum bactericidal concentration (MBC). […] All experiments were performed in triplicate.

[2] = test system: Bacillus subtilis NBIMCC 3562
Method: as §1, §2, §3

[3] = BALB 3T3 Neutral Red Uptake cytotoxicity/phototoxicity test; settings: mouse, Mean CC50 ± SD
Method: (§4) An in vitro BALB 3T3 Neutral Red Uptake assay was used to determine the cytotoxicity/phototoxicity of the peptides. Cytotoxicity of peptide analogs was calculated as a percentage relative to the negative control. […] Photo irritation factor (PIF) was used to assess the phototoxic potential of the peptide analogs. The PIF factor represents the ratio between the CC50 values of dark (non-irradiated or—Irr) and irradiated (+Irr) microplates, PIF = (CC50 − Irr)/(CC50 + Irr).
(§5) Mouse embryonic fibroblasts (BALB 3T3) were used to perform the cytotoxicity and phototoxicity tests. The tests were performed by OECD Guidelines for the Testing of Chemicals, Section 4, Test No. 432. Cells were plated at 1 × 10^4 cells/well in 96-well plates. Cells were incubated in a thermostat for 24 h. Then, the test peptides were added at various working concentrations (4–1000 μM). In the phototoxicity test, 96-well plates were irradiated with a dose of 2.4 J/cm^2 using a solar light simulator Helios-iO (SERIC Ltd., Tokyo, Japan). Cell viability was measured using the BALB 3T3 neutral red uptake test. Cytotoxicity is presented as % relative to the negative control.

[4] = test system: BALB 3T3 cells; test: as above; settings: for Toxicity compared to the parent peptide aurein 1.2: BALB 3T3 cells, fold lower toxicity
Method: as §4, §5

[5] = test system: MCF-12F; test: cells; settings: 72 h
Method: (§6) The peptides were studied for antiproliferative activity with an MTT-dye reduction assay. Cell cultures were incubated with the test peptides in twofold increasing concentrations (from 2 to 500 μM) for 72 h.
(§7) The antiproliferative activity of the peptides was determined in normal epithelial cells (MCF-12F) and tumor cells (MCF-7 and MDA-MB-231) by MTT-assay. Cells were plated 1 × 10^3 cells/100 µL/well of 96-well plates and incubated in a thermostat under standard conditions for 24 h. Cells were then incubated with the tested peptide analogs for 72 h in different concentrations (from 2 to 500 µM). The optical density of the formazan was measured at λ = 540 nm using a microplate reader. Antiproliferative activity was expressed as % from negative control. […] The statistical analysis of the results was performed using one-way ANOVA followed by Bonferroni’s post hoc test by GraphPad Prism 8 software (San Diego, CA, USA).

[6] = test system: MCF-7; test: cells
Method: as §6, §7

[7] = test system: MDA-MB-231; test: cells
Method: as §6, §7

[8] = broth microdilution, 0–320 µg/mL, 24 h, NI = no inhibition monitored
[9] = SI = IC50 (normal cells)/IC50 (tumor cells), normal cells MCF-12F

Row | SMILES | MIC, Escherichia coli NBIMCC K12 407 ([1]; K12, 24 h) | MIC, Bacillus subtilis NBIMCC 3562 ([2]; NBIMCC 3562, 24 h) | CC50 ([3]; +Irr) | PIF (Photo Irritation Factor) [4] | Toxicity compared to the parent peptide aurein 1.2 [4] | IC50 [5] | IC50 ([6]; 72 h) | IC50 ([7]; 72 h) | also measured
1 | CC[C@H](C)[C@H](NC(=O)[C@H](CCCN)NC(=O)[C@H](CCCN)NC(=O)[C@@H](NC(=O)[C@@H](NC(=O)[C@H](CC(=O)O)NC(=O)[C@H](Cc1ccccc1)NC(=O)[C@H](CC(C)C)NC(=O)CN)[C@@H](C)CC)[C@@H](C)CC)C(=O)N[C@@H](C)C(=O)N[C@@H](CCC(=O)O)C(=O)N[C@@H](CO)C(=O)N[C@@H](Cc1ccccc1)C(N)=O [EH [Orn]^7,8, Gly-Leu-Phe-Asp-Ile-Ile-Orn^7-Orn^8-Ile-Ala-Glu-Ser-Phe-NH2] (H-GLFDII[Orn][Orn]IAESF-NH2) |  |  |  |  |  |  |  |  | MIC, Escherichia coli NBIMCC K12 407 [1, 8]: 80 µg/mL (≈ 55.1 µM); MBC, Bacillus subtilis NBIMCC 3562 ([2]; 0–320 µg/mL, NI = no inhibition monitored): 320 µg/mL (≈ 220 µM); MIC, Bacillus subtilis NBIMCC 3562 [2, 8]: 80 µg/mL (≈ 55.1 µM); CC50 ([3]; +Irr, BALB 3T3 cells, irradiated 2.4 J/cm^2, NRU): 101 ± 3.7 µM; CC50 ([3]; −Irr, BALB 3T3 cells, non-irradiated (dark), NRU): 157 ± 6.38 µM; PIF (Photo Irritation Factor) ([4]; PIF = (CC50 −Irr)/(CC50 +Irr), PIF < 2 not phototoxic, 2 < PIF < 5 possible phototoxicity, PIF > 5 phototoxic): 1.55; IC50 ([5]; read-out: Mean IC50 ± SD, MCF-12F, MTT, normal cell line): 112 ± 7.14 µM; IC50 ([6]; read-out: Mean IC50 ± SD, MCF-7, MTT, 72 h): 88.9 ± 3.14 µM; IC50 ([7]; read-out: Mean IC50 ± SD, MDA-MB-231, MTT, 72 h): 123 ± 6.47 µM
2 | CC[C@H](C)[C@H](NC(=O)[C@H](CCN)NC(=O)[C@H](CCN)NC(=O)[C@@H](NC(=O)[C@@H](NC(=O)[C@H](CC(=O)O)NC(=O)[C@H](Cc1ccccc1)NC(=O)[C@H](CC(C)C)NC(=O)CN)[C@@H](C)CC)[C@@H](C)CC)C(=O)N[C@@H](C)C(=O)N[C@@H](CCC(=O)O)C(=O)N[C@@H](CO)C(=O)N[C@@H](Cc1ccccc1)C(N)=O [EH [Dab]^7,8, Gly-Leu-Phe-Asp-Ile-Ile-Dab^7-Dab^8-Ile-Ala-Glu-Ser-Phe-NH2] (H-GLFDII[Dab][Dab]IAESF-NH2) | 160 µg/mL (≈ 112 µM) | 160 µg/mL (≈ 112 µM) | 181.1 ± 1.81 µM | 1.11 | two to four times lower toxicity | 168 ± 2.54 µM | 92.2 ± 1.8 µM | 164 ± 2.51 µM | 
3 | CC[C@H](C)[C@H](NC(=O)[C@H](CCCCN)NC(=O)[C@H](CCN)NC(=O)[C@@H](NC(=O)[C@@H](NC(=O)[C@H](CC(=O)O)NC(=O)[C@H](Cc1ccccc1)NC(=O)[C@H](CC(C)C)NC(=O)CN)[C@@H](C)CC)[C@@H](C)CC)C(=O)N[C@@H](C)C(=O)N[C@@H](CCC(=O)O)C(=O)N[C@@H](CO)C(=O)N[C@@H](Cc1ccccc1)C(N)=O [EH [Dab]^7, Gly-Leu-Phe-Asp-Ile-Ile-Dab^7-Lys-Ile-Ala-Glu-Ser-Phe-NH2] (H-GLFDII[Dab]KIAESF-NH2) | 80 µg/mL (≈ 55.1 µM) | 80 µg/mL (≈ 55.1 µM) | 113 ± 5.57 µM | 1.40 |  | 92.1 ± 2.12 µM | 74.4 ± 3.29 µM | 125 ± 4.97 µM | MBC, Bacillus subtilis NBIMCC 3562 ([2]; NBIMCC 3562, 24 h): 320 µg/mL (≈ 220 µM)
4 | CC[C@H](C)[C@H](NC(=O)[C@H](CN)NC(=O)[C@H](CN)NC(=O)[C@@H](NC(=O)[C@@H](NC(=O)[C@H](CC(=O)O)NC(=O)[C@H](Cc1ccccc1)NC(=O)[C@H](CC(C)C)NC(=O)CN)[C@@H](C)CC)[C@@H](C)CC)C(=O)N[C@@H](C)C(=O)N[C@@H](CCC(=O)O)C(=O)N[C@@H](CO)C(=O)N[C@@H](Cc1ccccc1)C(N)=O [EH [Dap]^7,8, Gly-Leu-Phe-Asp-Ile-Ile-Dap^7-Dap^8-Ile-Ala-Glu-Ser-Phe-NH2] (H-GLFDII[Dap][Dap]IAESF-NH2) |  | 320 µg/mL (≈ 229 µM) | 357.5 ± 3.03 µM | 1.01 | two to four times lower toxicity | 308 ± 21.7 µM | 289 ± 19.8 µM | 372.2 ± 3.17 µM | 
5 | COc1cccc2c1C(=O)c1c(O)c3c(c(O)c1C2=O)C[C@@](O)(C(=O)CO)C[C@@H]3O[C@H]1C[C@H](N)[C@H](O)[C@H](C)O1 [Doxorubicin, reference compound] |  |  |  |  |  |  |  |  | IC50 ([5]; Homo sapiens, read-out: Mean IC50 ± SD, MCF-12F): 0.601 ± 0.059 µM; IC50 ([6]; Homo sapiens, MCF7, 72 h, read-out: Mean IC50 ± SD, MCF-7): 0.68 ± 0.031 µM; SI, MCF-7 [6, 9]: 0.88; IC50 ([7]; Homo sapiens, MDA-MB-231, 72 h, read-out: Mean IC50 ± SD, MDA-MB-231): 2.53 ± 0.11 µM; SI, MDA-MB-231 [7, 9]: 0.237
